Key:
Type in all cases: in vivo, rat
[1] = tested on: Alcohol-Preferring (P) rats; experiment: Operant ethanol self-administration in P rats (progressive ratio schedule); details: for ethanol-motivated responding: P rats on progressive ratio schedule, result in words; for Reduction vs. Vehicle (lever presses) / Mean Number of Lever Presses (Drug-treated): female P rats; for Mean Number of Lever Presses (Drug-treated): 30-min progressive ratio session
Description: Operant Self-Administration in P rats:
Female P rats are obtained and pair-housed from a private colony (Taconic, Germantown, N.Y.). In order to reduce novelty-induced avoidance of ethanol, the water bottle on the homecage is replaced with a bottle containing 15% ethanol in water (v/v, in water) for two days prior to operant training. Throughout the rest of the experiment, rats receive ad libitum access to water and standard laboratory chow, with no further access to ethanol in the homecage.
Rats are trained to press a lever for ethanol reinforcement in daily 30-min sessions conducted in standard rat operant chambers contained within sound-attenuating chambers (MED Associates, Inc., St. Albans, Vt.). The chambers consist of two stainless steel and two clear Plexiglas walls. The floor grid of the operant chambers consists of 0.5 cm diameter stainless steel bars placed approximately 1.5 cm apart. Each operant chamber contains two retractable operant levers located approximately 6 cm above the grid floor and 13 cm apart. A recessed trough is located in the space between the levers, through which a dipper cup (0.1 mL capacity) is raised to deliver response-contingent ethanol (15%, v/v, in water). Upon a reinforced response, a stimulus light is illuminated above the lever on which the response was made throughout the 4-sec dipper cup access. Operation of the stimuli and behavioral responses are controlled and recorded by personal computer for offline analysis (MED Associates, Inc., St. Albans, Vt.).
During operant training, responses on either lever are considered correct responses and are rewarded with 0.1 mL ethanol reinforcement. […] Once stable baseline responding is reached on an FR-1 schedule of reinforcement, the response contingency is increased to FR-2 and then again to FR-3 so that 3 lever presses are required for each reinforcement. […] Specifically, the response requirement is increased as follows: all rats begin each session at an FR-1 schedule of reinforcement; after three reinforcements, the schedule is increased to FR-2; after three reinforcements at that level, the schedule is increased by two to FR-4; after three reinforcements, the schedule is increased by two to FR-6; and so on (see for e.g. Oster S M, Toalston J E, Kuc K A, Pommer T J, Murphy J M, Lumeng L, Bell R L, McBride W J and Rodd Z A (2006) Effects of multiple alcohol deprivations on operant ethanol self-administration by high-alcohol-drinking replicate rat lines. Alcohol 38:155-164). Each session lasts a total of 30 min, after which, all stimuli are turned off and levers are retracted. […] The amount of ethanol consumed is calculated from the number of active lever presses, and converted into g/kg EtOH consumed. Rats receive oral administration of vehicle or test compound in the dose range of 3, 10, or 30 mg/kg (3 mL/kg dose volume, dissolved in a vehicle consisting of 20% Captisol® in 25 mM phosphate buffer at pH=2), or the nonselective opioid receptor antagonist naltrexone (10 mg/kg) as a positive control, 60 min. prior to the session, using a within-subjects, crossover design (3-4 day washout between subsequent doses). On a separate occasion, rats receive oral administration of vehicle or 30 mg/kg test compound (1 mL/kg dose volume, dissolved in a vehicle consisting of 20% Captisol® in 25 mM phosphate buffer), 30 min prior to the session, using a crossover design.

P rats = experiment: Free-choice ethanol self-administration in P rats; details: for Mean EtOH Consumed in g/kg (Drug-treated) / Reduction vs. Vehicle (EtOH consumed): 12 hr; for ethanol self-administration: free-choice access, P rats and msP rats
Description: Free-Choice Ethanol Self-Administration in Alcohol-Preferring Rats: P Rats:
In this procedure (modified from Rodd-Henricks Z A, McKinzie D L, Shaikh S R, Murphy J M, McBride W J, Lumeng L and Li T K (2000) Alcohol deprivation effect is prolonged in the alcohol preferring (P) rat after repeated deprivations. Alcohol Clin Exp Res 24:8-16), female P rats are obtained from a private colony (Taconic, Germantown, N.Y.), individually-housed with food, 15% ethanol (v/v, in water), and water available ad libitum, and maintained on a 12 hr. light/dark cycle (lights off at 16:00). The chambers are equipped with a force transduction system (TSE Systems, Bad Homburg, Germany) attached to the ethanol, water, and food receptacles to enable continuous monitoring of food and liquid consumption. Rats voluntarily consume 15% ethanol with a mean daily intake of roughly 5 g/kg for several months prior to drug testing. Rats are treated orally with vehicle or test compounds in the dose range of 3, 10, or 30 mg/kg (3 mL/kg dose volume, dissolved in a vehicle consisting of 20% Captisol® in 25 mM phosphate buffer at pH=2), or naltrexone (10 mg/kg, 1 mL/kg dose volume, dissolved in water) immediately prior to the onset of the dark cycle, using a within-subjects, crossover design (3-4 day washout between subsequent doses). In a separate experiment, rats receive oral administration of vehicle followed by 4 daily oral doses of vehicle or 30 mg/kg test compound immediately prior to the onset of the dark cycle, using a between-subjects design.

msP rats = experiment: Free-choice ethanol self-administration in msP rats; details: 24 hr
Description: In a separate study, male msP rats are obtained from a private colony (University of Camerino, Marche, Italy), individually-housed with food, 10% ethanol (v/v in water), and water available ad libitum, and maintained on a 12 hr. light/dark cycle. Ethanol and water are measured using graduated bottles to assess the volume of ethanol consumed (Economidou D, Fedeli A, Fardon R M, Weiss F, Massi M and Ciccocioppo R (2006) Effect of novel nociceptin/orphanin FQ-NOP receptor ligands on ethanol drinking in alcohol-preferring msP rats. Peptides 27:3299-3306.). Food intake is monitored by weighing the food receptacle. Once rats reach a stable baseline of voluntary ethanol consumption of 5-6 g/kg/day (approximately 4-5 months of age), rats are treated orally with test compounds in the dose range of 3 or 30 mg/kg in a formulation consisting of 1:1 distilled water: 1 M H3PO4 (1-5 mL/kg dose volume), one hour prior to onset of the dark cycle, using a within-subjects, crossover design (3-4 day washout between subsequent doses). Ethanol, water, and food are presented to the animals at the onset of the dark cycle, and consumption of food and fluids is measured at 2, 8, and 24 hr intervals.

[2] = P rats, 30 mg/kg oral once daily, day 2
[3] = P rats, 30 mg/kg oral once daily, day 3
[4] = P rats, 30 mg/kg oral once daily, day 4
[5] = P rats, 30 mg/kg oral once daily, day 5

SMILES	ethanol-motivated responding [1]	Reduction vs. Vehicle (lever presses) ([1]; 30 mg/kg oral) [%]	Mean Number of Lever Presses (Drug-treated) ([1]; 30 mg/kg oral)	Mean EtOH Consumed in g/kg (Drug-treated) (P rats; P rats, 10 mg/kg oral) [g/kg]	Reduction vs. Vehicle (EtOH consumed) (P rats; P rats, 10 mg/kg oral) [%]	Mean EtOH Consumed in g/kg (Drug-treated) (P rats; P rats, 30 mg/kg oral) [g/kg]	Reduction vs. Vehicle (EtOH consumed) (P rats; P rats, 30 mg/kg oral) [%]	ethanol self-administration (P rats; result in words)	Mean EtOH Consumed in g/kg (Drug-treated) (msP rats; 3 mg/kg oral) [g/kg]	Reduction vs. Vehicle (EtOH consumed) (msP rats; 3 mg/kg oral) [%]	Mean EtOH Consumed in g/kg (Drug-treated) (msP rats; 30 mg/kg oral) [g/kg]	Reduction vs. Vehicle (EtOH consumed) (msP rats; 30 mg/kg oral) [%]	other results
Cc1nn(-c2ncccc2F)cc1CN1CCC2(CC1)OCC(F)(F)c1cc(Cl)sc12 [Compound 2, 2-Chloro-4,4-difluoro-1′-[[1-(3-fluoro-2-pyridyl)-3-methyl-pyrazol-4-yl]methyl]spiro[5H-thieno[2,3-c]pyran-7,4′-piperidine]]	reduce ethanol-motivated responding	61.9	143.31	3.70	28.3	3.40	34.1	significantly reduce ethanol self-administration	5.6	20.0	5	28.6	
Cc1nn(-c2ncccc2CO)cc1CN1CCC2(CC1)OCC(F)(F)c1cc(Cl)sc12 [Compound 1, [2-[4-[(2-chloro-4,4-difluoro-spiro[5H-thieno[2,3-c]pyran-7,4′-piperidine]-1′-yl)methyl]-3-methyl-pyrazol-1-yl]-3-pyridyl]methanol]	reduce ethanol-motivated responding	55.8	191.25	3.67	22.4	1.50	68.3	significantly reduce ethanol self-administration	6.7	8.2	4.4	39.7	Reduction vs. Vehicle (lever presses) ([1]; 3 mg/kg oral): 4.6%; Mean Number of Lever Presses (Drug-treated) ([1]; 3 mg/kg oral): 412.58; Reduction vs. Vehicle (lever presses) ([1]; 10 mg/kg oral): 23.7%; Mean Number of Lever Presses (Drug-treated) ([1]; 10 mg/kg oral): 330; Mean EtOH Consumed in g/kg (Drug-treated) (P rats; P rats, 3 mg/kg oral): 3.54 g/kg; Reduction vs. Vehicle (EtOH consumed) (P rats; P rats, 3 mg/kg oral): 25.2%; Mean EtOH Consumed in g/kg (day 2) (P rats; [2]): 1.59 g/kg; Reduction vs. vehicle (EtOH consumed, day 2) (P rats; [2]): 63.6%; Mean EtOH Consumed in g/kg (day 3) (P rats; [3]): 2.02 g/kg; Reduction vs. vehicle (EtOH consumed, day 3) (P rats; [3]): 61.8%; Mean EtOH Consumed in g/kg (day 4) (P rats; [4]): 2.69 g/kg; Reduction vs. vehicle (EtOH consumed, day 4) (P rats; [4]): 45.0%; Mean EtOH Consumed in g/kg (day 5) (P rats; [5]): 2.50 g/kg; Reduction vs. vehicle (EtOH consumed, day 5) (P rats; [5]): 54.0%; suppression of ethanol intake on repeated dosing (P rats; P rats, 4 days of once daily dosing, result in words): maintain suppression of ethanol intake in P rats throughout 4 days of once daily dosing without tachyphylaxis

Reference: US9371335B2, “Spirothienopyran-piperidine derivatives as ORL-1 receptor antagonists for their use in the treatment of alcohol dependence and abuse” (Eli Lilly and Company, priority 2011, dated 2016)
